Assay results: patent publication US20200405696A1, “INHIBITORS OF INDOLEAMINE 2,3-DIOXYGENASE AND/OR TRYPTOPHAN 2,3-DIOXYGENASE” (IDORSIA PHARMACEUTICALS LTD, priority 2018, published 2020)

Experiments:
[1] = biological target: T1, Recombinant full-length human IDO1 (Homo sapiens, UniProt P14902); assay: IDO1 enzymatic assay (NFK quantified by LCMS); type: biochemical; conditions: 2 nM enzyme, 5 μM L-tryptophan, pH6.5, 30 minutes pre-incubation at RT; mean values when measured multiple times; read-out: hIDO activity (IC50 in nM)
T1 construct: Recombinant full-length human IDO1 with a N-terminal hexahistidine tag; hexahistidine (His6) (N); made in house; host or cells: E. coli
Summary of the method: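 His-tagged human IDO1 (2 nM) in pH 6.5 phosphate buffer with ascorbate, methylene blue and catalase was preincubated with compound (10 μM–0.5 nM, 0.6% DMSO) for 30 min at RT. The reaction then ran with 5 μM L-Trp for 30 min. NFK was measured by LCMS against a d5-Trp standard, and IC50 was obtained by four-parameter fit.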

[2] = biological target: T2, Recombinant human TDO comprising amino acids 19-407 (Homo sapiens, UniProt P48775); assay: TDO2 enzymatic assay (NFK quantified by LCMS); type: biochemical; conditions: 15 nM enzyme, 200 μM L-tryptophan, pH7, 30 minutes pre-incubation at RT; mean values when measured multiple times; read-out: hTDO activity (IC50 in nM)
T2 construct: Recombinant human TDO comprising amino acids 19-407 with a N-terminal hexahistidine tag; hexahistidine (His6) (N); made in house; host or cells: E. coli
Summary of the method: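 NFK formed over 30 min at RT from 200 μM L-tryptophan was measured by LCMS, normalized to d5-tryptophan, after compound (0.5 nM–10 μM, duplicates, 0.6% DMSO) was preincubated 30 min with 15 nM recombinant His-tagged TDO 19-407 in phosphate buffer pH 7. IC50 from four-parameter logistic fit; repeats averaged.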

T1 sequence (P14902 whole entry): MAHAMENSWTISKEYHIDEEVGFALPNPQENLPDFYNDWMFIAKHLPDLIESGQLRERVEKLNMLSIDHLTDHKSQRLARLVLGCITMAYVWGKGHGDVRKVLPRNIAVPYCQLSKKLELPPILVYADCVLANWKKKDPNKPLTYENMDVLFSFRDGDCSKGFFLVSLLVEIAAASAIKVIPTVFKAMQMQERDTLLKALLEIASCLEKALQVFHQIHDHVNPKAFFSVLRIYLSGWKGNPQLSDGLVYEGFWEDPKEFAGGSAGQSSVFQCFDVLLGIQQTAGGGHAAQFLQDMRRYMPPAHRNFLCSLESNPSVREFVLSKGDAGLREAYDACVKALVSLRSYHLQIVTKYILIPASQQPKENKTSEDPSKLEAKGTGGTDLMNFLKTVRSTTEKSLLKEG
T2 sequence (P48775 19-406 limits assumed): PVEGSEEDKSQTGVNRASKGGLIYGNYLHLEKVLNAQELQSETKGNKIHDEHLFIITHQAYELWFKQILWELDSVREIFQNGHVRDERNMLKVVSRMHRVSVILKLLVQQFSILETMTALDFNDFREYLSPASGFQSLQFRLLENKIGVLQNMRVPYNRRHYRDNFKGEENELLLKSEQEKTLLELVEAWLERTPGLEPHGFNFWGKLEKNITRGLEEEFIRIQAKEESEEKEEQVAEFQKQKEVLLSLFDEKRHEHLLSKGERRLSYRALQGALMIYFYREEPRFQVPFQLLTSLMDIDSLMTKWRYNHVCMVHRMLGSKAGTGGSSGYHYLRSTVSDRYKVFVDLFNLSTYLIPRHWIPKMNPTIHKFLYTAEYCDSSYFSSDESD

| IC50 [1] [nM] | IC50 [2] [nM] | SMILES |
| --- | --- | --- |
| 14.6 | > 10200 | CC(C)(O)COc1ccc(-n2cc(C(O)c3c(C4CC4)sc4cncn34)nn2)cc1 (racemic) [Example 139, rac-1-(4-{4-[(2-Cyclopropyl-imidazo[5,1-b]thiazol-3-yl)-hydroxy-methyl]-[1,2,3]triazol-1-yl}-phenoxy)-2-methyl-propan-2-ol] |
| 49.2 | > 10200 | Cc1ccccc1-n1cc(C(O)c2c(C3CC3)sc3cncn23)nn1 (racemic) [Example 3, rac-(2-Cyclopropyl-imidazo[5,1-b]thiazol-3-yl)-(1-o-tolyl-1H-[1,2,3]triazol-4-yl)-methanol] |
| 13 | > 10200 | CC(F)(F)c1sc2cncn2c1C(O)c1cn(-c2ccc(OCC3(F)COC3)c(Cl)c2)nn1 (racemic) [Example 316, rac-{1-[3-Chloro-4-(3-fluoro-oxetan-3-ylmethoxy)-phenyl]-1H-[1,2,3]triazol-4-yl}-[2-(1,1-difluoro-ethyl)-imidazo[5,1-b]thiazol-3-yl]-methanol] |
| 11.1 | 8520 | COC(=O)Nc1ccc(-n2cc(C(O)c3c(C4CC4)sc4cncn34)nn2)cc1 (racemic) [Example 36, rac-(4-{4-[(2-Cyclopropyl-imidazo[5,1-b]thiazol-3-yl)-hydroxy-methyl]-[1,2,3]triazol-1-yl}-phenyl)-carbamic Acid Methyl Ester] |
| 17.5 | > 10200 | COc1ccc(-n2cc(C(O)c3c(C(C)(F)F)sc4cncn34)nn2)cc1 (racemic) [Example 257, rac-[2-(1,1-Difluoro-ethyl)-imidazo[5,1-b]thiazol-3-yl]-[1-(4-methoxy-phenyl)-1H-[1,2,3]triazol-4-yl]-methanol] |
| 20.5 | 830 | CC=Cc1sc2cncn2c1C(O)c1cn(-c2ccc(OC)cc2)nn1 (racemic) [Example 263, rac-[1-(4-Methoxy-phenyl)-1H-[1,2,3]triazol-4-yl]-[((E)-2-(prop-1-enyl))-imidazo[5,1-b]thiazol-3-yl]-methanol] |
| 201 | > 10200 | COC(=O)c1cc(-n2cc(C(O)c3c(C4CC4)sc4cncn34)nn2)cnc1OC (racemic) [Example 70, rac-5-{4-[(2-Cyclopropyl-imidazo[5,1-b]thiazol-3-yl)-hydroxy-methyl]-[1,2,3]triazol-1-yl}-2-methoxy-nicotinic acid methyl ester] |
| 88.8 | 8670 | COc1ccc(-n2cc(C(O)c3c(-c4ccccc4F)sc4cncn34)nn2)cc1 (racemic) [Example 287, rac-[2-(2-Fluoro-phenyl)-imidazo[5,1-b]thiazol-3-yl]-[1-(4-methoxy-phenyl)-1H-[1,2,3]triazol-4-yl]-methanol] |
| 40.7 | > 10200 | COC(=O)COc1ccc(-n2cc(C(O)c3c(C4CC4)sc4cncn34)nn2)cn1 (racemic) [Example 75, rac-(5-{4-[(2-Cyclopropyl-imidazo[5,1-b]thiazol-3-yl)-hydroxy-methyl]-[1,2,3]triazol-1-yl}-pyridin-2-yloxy)-acetic acid methyl ester] |
| 39.6 | > 10200 | OC(c1cn(-c2cccc3ccncc23)nn1)c1c(C2CC2)sc2cncn12 (racemic) [Example 22, rac-(2-Cyclopropyl-imidazo[5,1-b]thiazol-3-yl)-(1-isoquinolin-8-yl-1H-[1,2,3]triazol-4-yl)-methanol] |
| 13.5 | > 10200 | N#Cc1cccc(-n2cc([C@H](O)c3c(C4CC4)sc4cncn34)nn2)c1 [Example 18a, 3-{4-[(R)-(2-Cyclopropyl-imidazo[5,1-b]thiazol-3-yl)-hydroxy-methyl]-[1,2,3]triazol-1-yl}-benzonitrile] |
| 8.21 | 7750 | CCc1sc2cncn2c1C(O)c1cn(-c2ccc(NC(=O)C(C)C)cc2)nn1 (racemic) [Example 127, rac-N-(4-{4-[(2-Ethyl-imidazo[5,1-b]thiazol-3-yl)-hydroxy-methyl]-[1,2,3]triazol-1-yl}-phenyl)-isobutyramide] |
| 1100 | > 10200 | CC(=O)Nc1ccc(-n2cc(C(O)c3c(C4CC4)sc4cncn34)cn2)cc1 (racemic) [Example 224, rac-N-(4-{4-[(2-Cyclopropyl-imidazo[5,1-b]thiazol-3-yl)-hydroxy-methyl]-pyrazol-1-yl}-phenyl)-acetamide] |
| 177 | > 10200 | COc1ccc(-n2cc(C(O)c3c(-c4cccc(F)c4)sc4cncn34)nn2)cc1 (racemic) [Example 64, rac-[2-(3-Fluoro-phenyl)-imidazo[5,1-b]thiazol-3-yl]-[1-(4-methoxy-phenyl)-1H-[1,2,3]triazol-4-yl]-methanol] |
| 20.7 | > 10200 | OC(c1cn(-c2ccc(OCC3CCOCC3)cc2)nn1)c1c(C2CC2)sc2cncn12 (racemic) [Example 87, rac-(2-Cyclopropyl-imidazo[5,1-b]thiazol-3-yl)-{1-[4-(tetrahydro-pyran-4-ylmethoxy)-phenyl]-1H-[1,2,3]triazol-4-yl}-methanol] |
| 163 | 2530 | Cc1sc2cncn2c1C(O)c1cnn(-c2ccccc2)c1 (racemic) [Example 96, rac-(2-Methyl-imidazo[5,1-b]thiazol-3-yl)-(1-phenyl-1H-pyrazol-4-yl)-methanol] |
| 47.2 | > 10200 | CCNS(=O)(=O)c1ccc(-n2cc(C(O)c3c(CC)sc4cncn34)nn2)cc1 (racemic) [Example 244, rac-N-Ethyl-4-{4-[(2-ethyl-imidazo[5,1-b]thiazol-3-yl)-hydroxy-methyl]-[1,2,3]triazol-1-yl}-benzenesulfonamide] |
| 36 | > 10200 | COc1ccc(-n2nnc(C(O)c3c(C4CC4)sc4cncn34)c2C(C)(C)C)cc1 (racemic) [Example 274, rac-[5-tert-Butyl-1-(4-methoxy-phenyl)-1H-[1,2,3]triazol-4-yl]-(2-cyclopropyl-imidazo[5,1-b]thiazol-3-yl)-methanol] |
| 41.1 | > 10200 | COc1ccc(-n2cc(C(O)c3c(C4CC4)sc4cncn34)nn2)cc1I (racemic) [Example 291, rac-(2-Cyclopropyl-imidazo[5,1-b]thiazol-3-yl)-[1-(3-iodo-4-methoxy-phenyl)-1H-[1,2,3]triazol-4-yl]-methanol] |
| 317 | > 10200 | OC(c1ccc(-c2ccccc2)s1)c1c(C2CC2)sc2cncn12 (racemic) [Example 164, rac-(2-Cyclopropyl-imidazo[5,1-b]thiazol-3-yl)-(5-phenyl-thiophen-2-yl)-methanol] |
| 3.82 | 1210 | CCc1sc2cncn2c1C(O)c1cn(-c2ccc(O)c(Cl)c2)nn1 (racemic) [Example 323, rac-2-Chloro-4-{4-[(2-ethyl-imidazo[5,1-b]thiazol-3-yl)-hydroxy-methyl]-[1,2,3]triazol-1-yl}-phenol] |
| 31.6 | > 10200 | COCc1ccc(-n2cc(C(O)c3c(C4CC4)sc4cncn34)nn2)cc1 (racemic) [Example 330, rac-(2-Cyclopropyl-imidazo[5,1-b]thiazol-3-yl)-[1-(4-methoxymethyl-phenyl)-1H-[1,2,3]triazol-4-yl]-methanol] |
| 14.1 | > 10200 | CCOc1ccc(-n2nnc(C(O)c3c(C4CC4)sc4cncn34)c2C)cc1Cl (racemic) [Example 296, rac-[1-(3-Chloro-4-ethoxy-phenyl)-5-methyl-1H-[1,2,3]triazol-4-yl]-(2-cyclopropyl-imidazo[5,1-b]thiazol-3-yl)-methanol] |
| 20.1 | > 10200 | CCc1sc2cncn2c1C(O)c1cn(-c2ccc(C(=O)NCCCOC)cc2)nn1 (racemic) [Example 126, rac-4-{4-[(2-Ethyl-imidazo[5,1-b]thiazol-3-yl)-hydroxy-methyl]-[1,2,3]triazol-1-yl}-N-(3-methoxy-propyl)-benzamide] |
| 14.2 | > 10200 | CCOc1ncc(-n2cc(C(O)c3c(C4CC4)sc4cncn34)nn2)cn1 (racemic) [Example 65, rac-(2-Cyclopropyl-imidazo[5,1-b]thiazol-3-yl)-[1-(2-ethoxy-pyrimidin-5-yl)-1H-[1,2,3]triazol-4-yl]-methanol] |
| 12.1 | 7280 | COc1ccc(-n2nnc(C(O)c3c(C4CC4)sc4cncn34)c2I)cc1 (racemic) [Example 334, rac-(2-Cyclopropyl-imidazo[5,1-b]thiazol-3-yl)-[5-iodo-1-(4-methoxy-phenyl)-1H-[1,2,3]triazol-4-yl]-methanol] |
| 795 | > 10200 | Cc1sc2cncn2c1C(O)c1cn(Cc2ccccc2)nn1 (racemic) [Example 62, rac-(1-Benzyl-1H-[1,2,3]triazol-4-yl)-(2-methyl-imidazo[5,1-b]thiazol-3-yl)-methanol] |

| SMILES | IC50 [1] [nM] | IC50 [2] [nM] |
| --- | --- | --- |
| OC(c1cn(-c2cnc(OC3CCC3)nc2)nn1)c1c(C2CC2)sc2cncn12 (racemic) [Example 83, rac-[1-(2-Cyclobutoxy-pyrimidin-5-yl)-1H-[1,2,3]triazol-4-yl]-(2-cyclopropyl-imidazo[5,1-b]thiazol-3-yl)-methanol] | 10.9 | > 10200 |
